Results on 20 compounds are retold here after ChEMBL document CHEMBL1909046, “DrugMatrix in vitro pharmacology data”.

The target of one assay is Substance-P receptor (Homo sapiens, UniProt P25103). Type of assay: cell membranes, CHO, Membrane. Also: in other assays of this panel Not Active means under 50% inhibition at 10 µM.
In assay [1] the target is T1, Amine oxidase [flavin-containing] A (Homo sapiens, UniProt P21397).
T1 sequence (P21397 whole entry): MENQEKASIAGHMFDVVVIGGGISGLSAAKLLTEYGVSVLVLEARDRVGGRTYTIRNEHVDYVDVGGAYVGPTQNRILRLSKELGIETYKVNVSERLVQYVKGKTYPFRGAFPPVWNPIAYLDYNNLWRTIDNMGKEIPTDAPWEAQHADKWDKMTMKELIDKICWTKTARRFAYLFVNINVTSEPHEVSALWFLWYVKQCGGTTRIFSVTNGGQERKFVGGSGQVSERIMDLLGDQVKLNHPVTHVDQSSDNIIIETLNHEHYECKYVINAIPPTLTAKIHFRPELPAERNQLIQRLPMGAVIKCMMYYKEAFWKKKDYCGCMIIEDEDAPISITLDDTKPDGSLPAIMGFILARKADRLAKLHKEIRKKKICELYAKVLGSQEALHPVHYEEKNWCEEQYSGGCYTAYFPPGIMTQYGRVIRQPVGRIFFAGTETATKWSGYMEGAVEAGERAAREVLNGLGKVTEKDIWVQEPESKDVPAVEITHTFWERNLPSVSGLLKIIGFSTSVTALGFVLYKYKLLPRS
The experiment in a line: DRUGMATRIX: Monoamine Oxidase MAO-A enzyme inhibition (substrate: Kynuramine). Details: species or system BTI-TN-5B1-4. Conditions: bti-tn-5b1-4; Not Active = under 50% inhibition at 10 µM.

Assay [2] has as its target T2, C-X-C chemokine receptor type 2 (Homo sapiens, UniProt P25025). Also: in other assays of this panel Not Active means under 50% inhibition at 10 µM.
T2 sequence (P25025 whole entry): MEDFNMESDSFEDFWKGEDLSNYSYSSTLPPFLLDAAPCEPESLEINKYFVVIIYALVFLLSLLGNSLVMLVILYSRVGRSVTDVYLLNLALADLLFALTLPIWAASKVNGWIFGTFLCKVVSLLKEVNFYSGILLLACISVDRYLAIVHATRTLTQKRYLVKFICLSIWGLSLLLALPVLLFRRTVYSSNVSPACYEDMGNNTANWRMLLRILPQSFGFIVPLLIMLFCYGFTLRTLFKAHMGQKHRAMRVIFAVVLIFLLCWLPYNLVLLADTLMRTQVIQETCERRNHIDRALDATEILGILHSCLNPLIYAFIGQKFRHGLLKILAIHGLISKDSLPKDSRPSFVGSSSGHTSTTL
Type of assay: cell membranes, Membrane. Conditions: cho-k1.

Assay [3] addresses Epidermal growth factor receptor (Homo sapiens, UniProt P00533). The experiment in a line: DRUGMATRIX: Protein Tyrosine Kinase, EGF Receptor enzyme inhibition (substrate: Poly(Glu:Tyr)). Type of assay: cell-based, Insect cells. Particulars: Not Active = under 50% inhibition at 10 µM.
Assay [4] has as its target 5-hydroxytryptamine receptor 4 (Cavia porcellus, UniProt O70528). Format: cell membranes, Dunkin-Hartley, Striatum, Membrane. Also: in other assays of this panel Not Active means under 50% inhibition at 10 µM.
Assay [5] concerns the target Platelet-activating factor receptor (Homo sapiens, UniProt P25105). Type of assay: tissue-based. Also: in other assays of this panel Not Active means under 50% inhibition at 10 µM.
The target in a further assay is T3, B2 bradykinin receptor (Homo sapiens, UniProt P30411). Also: in other assays of this panel Not Active means under 50% inhibition at 10 µM.
T3 sequence (P30411 whole entry): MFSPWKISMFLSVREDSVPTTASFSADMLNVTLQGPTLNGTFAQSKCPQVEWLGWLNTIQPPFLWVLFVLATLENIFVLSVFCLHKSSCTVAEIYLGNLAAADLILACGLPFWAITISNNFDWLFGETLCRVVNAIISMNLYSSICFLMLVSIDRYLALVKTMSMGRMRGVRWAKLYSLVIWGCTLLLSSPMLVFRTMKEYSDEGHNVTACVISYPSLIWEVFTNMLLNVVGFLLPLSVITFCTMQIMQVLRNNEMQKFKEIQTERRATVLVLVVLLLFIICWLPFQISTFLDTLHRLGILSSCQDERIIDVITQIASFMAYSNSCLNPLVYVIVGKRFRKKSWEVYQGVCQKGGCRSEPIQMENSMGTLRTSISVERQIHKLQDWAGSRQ
Format: cell membranes, Membrane. Conditions: chem-1.

SMILES strings stand for the structures.

Sequence of Platelet-activating factor receptor (P25105 whole entry): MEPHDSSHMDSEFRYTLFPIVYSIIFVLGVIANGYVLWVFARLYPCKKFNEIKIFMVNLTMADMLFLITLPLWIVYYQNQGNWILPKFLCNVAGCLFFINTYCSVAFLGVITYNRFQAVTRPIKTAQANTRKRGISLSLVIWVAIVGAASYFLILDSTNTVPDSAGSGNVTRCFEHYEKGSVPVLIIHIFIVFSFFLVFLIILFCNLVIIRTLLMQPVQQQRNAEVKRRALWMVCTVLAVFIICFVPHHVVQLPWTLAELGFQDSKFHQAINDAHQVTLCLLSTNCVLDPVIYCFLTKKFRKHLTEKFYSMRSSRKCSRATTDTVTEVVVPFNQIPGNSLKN
Sequence of Substance-P receptor (P25103 whole entry): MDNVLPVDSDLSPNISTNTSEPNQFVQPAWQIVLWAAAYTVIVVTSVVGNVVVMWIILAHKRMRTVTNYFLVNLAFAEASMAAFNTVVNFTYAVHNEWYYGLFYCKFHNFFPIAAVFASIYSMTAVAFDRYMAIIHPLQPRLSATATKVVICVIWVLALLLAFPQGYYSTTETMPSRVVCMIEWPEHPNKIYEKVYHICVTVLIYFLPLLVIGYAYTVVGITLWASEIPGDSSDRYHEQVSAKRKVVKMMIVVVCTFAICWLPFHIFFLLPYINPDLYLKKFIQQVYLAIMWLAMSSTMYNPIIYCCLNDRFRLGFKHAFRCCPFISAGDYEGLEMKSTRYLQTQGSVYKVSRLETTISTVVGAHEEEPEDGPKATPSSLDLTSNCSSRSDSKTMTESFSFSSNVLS
Sequence of 5-hydroxytryptamine receptor 4 (O70528 whole entry): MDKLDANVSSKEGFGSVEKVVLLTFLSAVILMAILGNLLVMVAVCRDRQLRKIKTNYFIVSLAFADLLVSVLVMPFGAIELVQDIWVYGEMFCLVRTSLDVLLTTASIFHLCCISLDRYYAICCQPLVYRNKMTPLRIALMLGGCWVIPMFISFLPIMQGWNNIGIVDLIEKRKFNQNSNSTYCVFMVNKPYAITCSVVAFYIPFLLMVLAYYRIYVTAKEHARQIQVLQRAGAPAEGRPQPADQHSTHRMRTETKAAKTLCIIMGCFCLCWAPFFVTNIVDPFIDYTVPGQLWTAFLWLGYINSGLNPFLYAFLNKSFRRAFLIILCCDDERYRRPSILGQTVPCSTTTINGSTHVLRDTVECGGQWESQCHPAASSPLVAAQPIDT
Sequence of Epidermal growth factor receptor (P00533 whole entry): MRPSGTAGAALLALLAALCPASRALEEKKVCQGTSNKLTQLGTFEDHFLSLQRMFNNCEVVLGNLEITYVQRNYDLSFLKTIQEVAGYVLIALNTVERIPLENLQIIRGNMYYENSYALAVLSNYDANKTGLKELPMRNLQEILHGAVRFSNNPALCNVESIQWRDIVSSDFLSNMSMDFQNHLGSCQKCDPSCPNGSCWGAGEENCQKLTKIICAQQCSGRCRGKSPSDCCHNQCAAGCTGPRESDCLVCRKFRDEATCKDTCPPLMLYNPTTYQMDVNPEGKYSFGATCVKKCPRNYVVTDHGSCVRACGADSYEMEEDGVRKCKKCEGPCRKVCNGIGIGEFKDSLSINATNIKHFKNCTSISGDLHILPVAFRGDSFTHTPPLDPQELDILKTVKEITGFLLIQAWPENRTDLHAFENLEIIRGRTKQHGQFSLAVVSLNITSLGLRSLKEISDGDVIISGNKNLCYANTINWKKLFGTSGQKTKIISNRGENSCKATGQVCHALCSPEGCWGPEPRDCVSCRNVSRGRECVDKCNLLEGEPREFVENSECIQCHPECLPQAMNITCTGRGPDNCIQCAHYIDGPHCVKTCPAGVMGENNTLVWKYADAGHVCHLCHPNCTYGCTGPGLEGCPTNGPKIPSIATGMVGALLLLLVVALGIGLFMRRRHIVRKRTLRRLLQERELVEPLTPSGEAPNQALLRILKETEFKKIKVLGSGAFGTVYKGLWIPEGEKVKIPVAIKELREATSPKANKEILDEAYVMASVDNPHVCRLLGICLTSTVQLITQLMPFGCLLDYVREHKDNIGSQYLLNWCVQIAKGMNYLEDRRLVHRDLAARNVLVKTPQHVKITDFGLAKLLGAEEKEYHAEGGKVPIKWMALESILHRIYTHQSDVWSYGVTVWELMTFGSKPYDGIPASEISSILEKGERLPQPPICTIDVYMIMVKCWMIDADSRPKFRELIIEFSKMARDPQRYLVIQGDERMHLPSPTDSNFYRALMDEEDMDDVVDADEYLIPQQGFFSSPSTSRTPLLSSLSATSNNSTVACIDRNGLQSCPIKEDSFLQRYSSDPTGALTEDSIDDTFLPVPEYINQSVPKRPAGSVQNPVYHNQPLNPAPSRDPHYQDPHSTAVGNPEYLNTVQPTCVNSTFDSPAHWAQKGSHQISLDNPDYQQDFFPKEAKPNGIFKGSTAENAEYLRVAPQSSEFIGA

With `CCCCC(=O)N(Cc1ccc(-c2ccccc2-c2nnn[nH]2)cc1)[C@H](C(=O)O)C(C)C`, the IC50 result (against Substance-P receptor (cho); in assay [1]; in assay [2]; in assay [3] (insect cells); in assay [4]; in assay [5]) was “Not Active” in each case. Moreover, the IC50 result at B2 bradykinin receptor was “Not Active”.
In the case of `O=C(O)COc1ccc(C(=O)c2cccs2)c(Cl)c1Cl`, the IC50 entry (against Substance-P receptor (cho); in assay [1]; in assay [2]; in assay [3] (insect cells); in assay [4]; in assay [5]) was “Not Active” throughout. Also, at B2 bradykinin receptor, the IC50 result was “Not Active”.
On to `CN1[C@@H]2CC[C@H]1C[C@@H](OC(c1ccccc1)c1ccccc1)C2` [BENZTROPINE], for which the IC50 entry (at Substance-P receptor (cho); in assay [1]; in assay [2]; in assay [3] (insect cells); in assay [4]; in assay [5]) was “Not Active” throughout. The IC50 entry at B2 bradykinin receptor is listed as “Not Active”.
With `C[C@@](Cc1ccc(O)c(O)c1)(NN)C(=O)O.O` [CARBIDOPA], the IC50 entry (against Substance-P receptor (cho); in assay [1]; in assay [2]; in assay [3] (insect cells); in assay [4]; in assay [5]) was “Not Active” in each case. For the same compound, on B2 bradykinin receptor, the IC50 result is recorded as “Not Active”.
For `CN1CCN(C2=Nc3cc(Cl)ccc3Nc3ccccc32)CC1` [CLOZAPINE], the IC50 result (at Substance-P receptor (cho); in assay [1]; in assay [2]; in assay [3] (insect cells); in assay [4]; in assay [5]) was “Not Active” each time. In addition, the IC50 result on B2 bradykinin receptor is on record as “Not Active”.
In the case of `CC(C)NC[C@@H](O)COc1cccc2ccccc12` [DEXPROPRANOLOL], the IC50 entry (at Substance-P receptor (cho); in assay [1]; in assay [2]; in assay [3] (insect cells); in assay [4]; in assay [5]) was “Not Active” each time. Further, the half-maximal inhibitory concentration (IC50) result at B2 bradykinin receptor is “Not Active”.
Take `CC(C)NC[C@H](O)COc1cccc2ccccc12` [LEVOPROPRANOLOL]: the IC50 result (against Substance-P receptor (cho); in assay [1]; in assay [2]; in assay [3] (insect cells); in assay [4]; in assay [5]) was “Not Active” in each case. Moreover, on B2 bradykinin receptor, the IC50 entry is reported as “Not Active”.
Take `O=C(O)CCCCC1CCSS1` (stereo not drawn) [LIPOIC ACID, ALPHA]: the IC50 result (on Substance-P receptor (cho); in assay [1]; in assay [2]; in assay [3] (insect cells); in assay [4]; in assay [5]) was “Not Active” each time. The IC50 entry at B2 bradykinin receptor is given as “Not Active”.
Consider `CN(C)C(=O)C(CCN1CCC(O)(c2ccc(Cl)cc2)CC1)(c1ccccc1)c1ccccc1` [LOPERAMIDE], for which the IC50 result (on Substance-P receptor (cho); in assay [1]; in assay [2]; in assay [3] (insect cells); in assay [4]; in assay [5]) was “Not Active” in each case. The IC50 entry against B2 bradykinin receptor is given as “Not Active”.
Turning to `Clc1ccc(COC(Cn2ccnc2)c2ccc(Cl)cc2Cl)c(Cl)c1` (stereo unspecified) [MICONAZOLE], the IC50 is 6.81 µM on Substance-P receptor (read-out: IC50); “Not Active” in assay [1]; “Not Active” in assay [2]; 29.3 µM in assay [3] (read-out: IC50); “Not Active” in assay [4]; “Not Active” in assay [5]. Moreover, at B2 bradykinin receptor, the half-inhibitory concentration (IC50) result is “Not Active”. At Substance-P receptor (read-out: Ki), the Ki is 3.72 µM.
Take `Oc1ccc2c3c1O[C@H]1[C@@H](O)CC[C@@]4(O)[C@@H](C2)N(CC2CCC2)CC[C@]314` [NALBUPHINE]: the IC50 entry (at Substance-P receptor (cho); in assay [1]; in assay [2]; in assay [3] (insect cells); in assay [4]; in assay [5]) was “Not Active” each time. In addition, the IC50 entry at B2 bradykinin receptor was “Not Active”.
For the compound `C[C@]12C=CC(=O)C=C1CC[C@@H]1[C@@H]2C(=O)C[C@@]2(C)[C@H]1CC[C@]2(O)C(=O)CO` [PREDNISONE], the IC50 result (at Substance-P receptor (cho); in assay [1]; in assay [2]; in assay [3] (insect cells); in assay [4]; in assay [5]) was “Not Active” throughout. The IC50 entry against B2 bradykinin receptor is recorded as “Not Active”.
Turning to `OCCOCCN1CCN(C2=Nc3ccccc3Sc3ccccc32)CC1` [QUETIAPINE], the IC50 entry (on Substance-P receptor (cho); in assay [1]; in assay [2]; in assay [3] (insect cells); in assay [4]; in assay [5]) was “Not Active” throughout. Besides, the IC50 result against B2 bradykinin receptor is recorded as “Not Active”.
Consider `COC(=O)[C@H]1[C@H]2C[C@@H]3c4[nH]c5cc(OC)ccc5c4CCN3C[C@H]2C[C@@H](OC(=O)c2cc(OC)c(OC)c(OC)c2)[C@@H]1OC` [RESERPINE], for which the IC50 entry (on Substance-P receptor (cho); in assay [1]; in assay [2]; in assay [3] (insect cells); in assay [4]; in assay [5]) was “Not Active” each time. For the same compound, the IC50 result against B2 bradykinin receptor is on record as “Not Active”.
`O=C(O)c1ccccc1O` [SALICYLIC ACID]: the IC50 entry (against Substance-P receptor (cho); in assay [1]; in assay [2]; in assay [3] (insect cells); in assay [4]; in assay [5]) was “Not Active” throughout. Also, on B2 bradykinin receptor, the IC50 result is listed as “Not Active”.
Take `C[S+]([O-])c1ccc(-c2nc(-c3ccncc3)c(-c3ccc(F)cc3)[nH]2)cc1` (stereo unspecified) [SB-203580]: the IC50 result against Substance-P receptor (cho) was “Not Active”; in assay [1] it was “Not Active”; in assay [2], “Not Active”; in assay [4] (read-out: IC50) it was 10.6 µM; in assay [5], “Not Active”; at B2 bradykinin receptor, “Not Active”. The Ki in assay [4] (read-out: Ki) is 1.76 µM.
Turning to `CC1CCC(NC(=O)N(CCCl)N=O)CC1` (stereo unspecified) [SEMUSTINE], the IC50 result (on Substance-P receptor (cho); in assay [1]; in assay [2]; in assay [3] (insect cells); in assay [4]; in assay [5]) was “Not Active” each time. The concentration for half-maximal inhibition (IC50) entry on B2 bradykinin receptor is on record as “Not Active”.
`O=C1C[C@@H]2OCC=C3CN4CC[C@]56c7ccccc7N1[C@H]5[C@H]2[C@H]3C[C@H]46` [STRYCHNINE]: the IC50 entry (against Substance-P receptor (cho); in assay [1]; in assay [2]; in assay [3] (insect cells); in assay [4]; in assay [5]) was “Not Active” each time. Moreover, the concentration for half-maximal inhibition (IC50) result at B2 bradykinin receptor is “Not Active”.
For the compound `C[N+](C)(C)CCOC(=O)CCC(=O)OCC[N+](C)(C)C.[Cl-].[Cl-]` [SUCCINYLCHOLINE CHLORIDE], the IC50 entry (on Substance-P receptor (cho); in assay [1]; in assay [2]; in assay [3] (insect cells); in assay [4]; in assay [5]) was “Not Active” throughout. The IC50 entry against B2 bradykinin receptor is “Not Active”.
Regarding `Nc1ccc(S(=O)(=O)NC(=O)c2ccccc2)cc1` [SULFABENZAMIDE], the IC50 entry (on Substance-P receptor (cho); in assay [1]; in assay [2]; in assay [3] (insect cells); in assay [4]; in assay [5]) was “Not Active” each time. Also, the IC50 entry against B2 bradykinin receptor is “Not Active”.

What is called IC50 is the concentration needed to halve the response being measured. The term Ki denotes the dissociation constant of the complex between target and ligand, obtained from inhibition or displacement.
